Measurements published in PubChem BioAssay (NCI).
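Tested at 5 concentrations; 48 h exposure; 96-well plates; endpoints linearly interpolated, else capped at highest concentration. TGI: concentration producing complete growth inhibition.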

The compounds below were run on 786-0 renal (assay: inhibition of tumour cell growth, NCI panel, 48 h).

First: CCC(=O)Nc1cccc(NC(=O)c2c(Cl)c(Cl)c(Cl)c(Cl)c2-c2nc3ccccc3[nH]2)c1
Second: CN(C)c1ccc(C2C(Cl)C(=O)N2NC(=O)c2c(Cl)c(Cl)c(Cl)c(Cl)c2-c2nc3ccccc3[nH]2)cc1 (stereo unspecified)
The TGI of the first is higher: over 100 µM for the first, 6.2 µM for the second.

Going from `CCOC(=O)CCC(C(=O)OCC)n1nc2ccc(Nc3c(C)[n+]([O-])c4ccc(Cl)cc4[n+]3[O-])cc2n1` (stereo unspecified) to `CCOc1cc(NC(C)=O)ccc1C(=O)NNS(=O)(=O)c1ccc(Cl)cc1Cl`, the TGI rises from 33.8 µM to over 50 µM.

`C(=N\c1cc2cc(Sc3ccccc3)ccc2[nH]1)/c1ccccc1` gave a TGI of over 12.5 µM.

What follows are compounds tested on A498 renal (assay: inhibition of tumour cell growth, NCI panel, 48 h).

First: CCC(=O)Nc1cccc(NC(=O)c2c(Cl)c(Cl)c(Cl)c(Cl)c2-c2nc3ccccc3[nH]2)c1
Second: CN(C)c1ccc(C2C(Cl)C(=O)N2NC(=O)c2c(Cl)c(Cl)c(Cl)c(Cl)c2-c2nc3ccccc3[nH]2)cc1 (stereo unspecified)
The TGI of the first is higher: over 100 µM for the first, 40.2 µM for the second.

`CCOC(=O)CCC(C(=O)OCC)n1nc2ccc(Nc3c(C)[n+]([O-])c4ccc(Cl)cc4[n+]3[O-])cc2n1` (stereo unspecified) and `CCOc1cc(NC(C)=O)ccc1C(=O)NNS(=O)(=O)c1ccc(Cl)cc1Cl` cannot be ordered by TGI: 56.3 µM for the first, over 50 µM for the second.

Compound `C(=N\c1cc2cc(Sc3ccccc3)ccc2[nH]1)/c1ccccc1` has a TGI of over 12.5 µM.

Each compound was assayed on A549 NSCLC (assay: inhibition of tumour cell growth, NCI panel, 48 h).

`CCC(=O)Nc1cccc(NC(=O)c2c(Cl)c(Cl)c(Cl)c(Cl)c2-c2nc3ccccc3[nH]2)c1` and `CN(C)c1ccc(C2C(Cl)C(=O)N2NC(=O)c2c(Cl)c(Cl)c(Cl)c(Cl)c2-c2nc3ccccc3[nH]2)cc1` (stereo unspecified) cannot be ordered by TGI: over 100 µM for the first, over 100 µM for the second.

Going from `CCOC(=O)CCC(C(=O)OCC)n1nc2ccc(Nc3c(C)[n+]([O-])c4ccc(Cl)cc4[n+]3[O-])cc2n1` (stereo unspecified) to `CCOc1cc(NC(C)=O)ccc1C(=O)NNS(=O)(=O)c1ccc(Cl)cc1Cl`, the TGI rises from 45.8 µM to over 50 µM.

For `C(=N\c1cc2cc(Sc3ccccc3)ccc2[nH]1)/c1ccccc1`, the TGI was over 12.5 µM.

The compounds below were run on ACHN renal (assay: inhibition of tumour cell growth, NCI panel, 48 h).

Compared with `CCC(=O)Nc1cccc(NC(=O)c2c(Cl)c(Cl)c(Cl)c(Cl)c2-c2nc3ccccc3[nH]2)c1`, `CN(C)c1ccc(C2C(Cl)C(=O)N2NC(=O)c2c(Cl)c(Cl)c(Cl)c(Cl)c2-c2nc3ccccc3[nH]2)cc1` (stereo unspecified) is lower in TGI: over 100 µM for the first, 34.6 µM for the second.

Going from `CCOC(=O)CCC(C(=O)OCC)n1nc2ccc(Nc3c(C)[n+]([O-])c4ccc(Cl)cc4[n+]3[O-])cc2n1` (stereo unspecified) to `CCOc1cc(NC(C)=O)ccc1C(=O)NNS(=O)(=O)c1ccc(Cl)cc1Cl`, the TGI rises from 31.9 µM to over 50 µM.

`C(=N\c1cc2cc(Sc3ccccc3)ccc2[nH]1)/c1ccccc1` showed a TGI of over 12.5 µM.

Each compound was assayed on BT-549 breast (assay: inhibition of tumour cell growth, NCI panel, 48 h).

Going from `CCC(=O)Nc1cccc(NC(=O)c2c(Cl)c(Cl)c(Cl)c(Cl)c2-c2nc3ccccc3[nH]2)c1` to `CN(C)c1ccc(C2C(Cl)C(=O)N2NC(=O)c2c(Cl)c(Cl)c(Cl)c(Cl)c2-c2nc3ccccc3[nH]2)cc1` (stereo unspecified), the TGI falls from over 100 µM to 33.2 µM.

`CCOC(=O)CCC(C(=O)OCC)n1nc2ccc(Nc3c(C)[n+]([O-])c4ccc(Cl)cc4[n+]3[O-])cc2n1` (stereo unspecified) and `CCOc1cc(NC(C)=O)ccc1C(=O)NNS(=O)(=O)c1ccc(Cl)cc1Cl` cannot be ordered by TGI: over 100 µM for the first, over 50 µM for the second.

`C(=N\c1cc2cc(Sc3ccccc3)ccc2[nH]1)/c1ccccc1` was tested, and the TGI was over 12.5 µM.

These compounds were tested on CAKI-1 renal (assay: inhibition of tumour cell growth, NCI panel, 48 h).

First: CCC(=O)Nc1cccc(NC(=O)c2c(Cl)c(Cl)c(Cl)c(Cl)c2-c2nc3ccccc3[nH]2)c1
Second: CN(C)c1ccc(C2C(Cl)C(=O)N2NC(=O)c2c(Cl)c(Cl)c(Cl)c(Cl)c2-c2nc3ccccc3[nH]2)cc1 (stereo unspecified)
The TGI of the first is higher: over 100 µM for the first, 41.1 µM for the second.

`CCOC(=O)CCC(C(=O)OCC)n1nc2ccc(Nc3c(C)[n+]([O-])c4ccc(Cl)cc4[n+]3[O-])cc2n1` (stereo unspecified) and `CCOc1cc(NC(C)=O)ccc1C(=O)NNS(=O)(=O)c1ccc(Cl)cc1Cl` cannot be ordered by TGI: over 100 µM for the first, over 50 µM for the second.

In the case of `C(=N\c1cc2cc(Sc3ccccc3)ccc2[nH]1)/c1ccccc1`, the TGI is reported as over 12.5 µM.

These compounds were tested on CCRF-CEM leukemia (assay: inhibition of tumour cell growth, NCI panel, 48 h).

`CCC(=O)Nc1cccc(NC(=O)c2c(Cl)c(Cl)c(Cl)c(Cl)c2-c2nc3ccccc3[nH]2)c1` and `CN(C)c1ccc(C2C(Cl)C(=O)N2NC(=O)c2c(Cl)c(Cl)c(Cl)c(Cl)c2-c2nc3ccccc3[nH]2)cc1` (stereo unspecified) cannot be ordered by TGI: over 100 µM for the first, over 100 µM for the second.

`CCOC(=O)CCC(C(=O)OCC)n1nc2ccc(Nc3c(C)[n+]([O-])c4ccc(Cl)cc4[n+]3[O-])cc2n1` (stereo unspecified) and `CCOc1cc(NC(C)=O)ccc1C(=O)NNS(=O)(=O)c1ccc(Cl)cc1Cl` cannot be ordered by TGI: over 100 µM for the first, over 50 µM for the second.

Work on `C(=N\c1cc2cc(Sc3ccccc3)ccc2[nH]1)/c1ccccc1` yielded a TGI of over 12.5 µM.

These compounds were tested on COLO 205 colon (assay: inhibition of tumour cell growth, NCI panel, 48 h).

Compared with `CCC(=O)Nc1cccc(NC(=O)c2c(Cl)c(Cl)c(Cl)c(Cl)c2-c2nc3ccccc3[nH]2)c1`, `CN(C)c1ccc(C2C(Cl)C(=O)N2NC(=O)c2c(Cl)c(Cl)c(Cl)c(Cl)c2-c2nc3ccccc3[nH]2)cc1` (stereo unspecified) is lower in TGI: over 100 µM for the first, 66.1 µM for the second.

`CCOC(=O)CCC(C(=O)OCC)n1nc2ccc(Nc3c(C)[n+]([O-])c4ccc(Cl)cc4[n+]3[O-])cc2n1` (stereo unspecified) and `CCOc1cc(NC(C)=O)ccc1C(=O)NNS(=O)(=O)c1ccc(Cl)cc1Cl` cannot be ordered by TGI: over 100 µM for the first, over 50 µM for the second.

Each compound was assayed on DU-145 prostate (assay: inhibition of tumour cell growth, NCI panel, 48 h).

Going from `CCC(=O)Nc1cccc(NC(=O)c2c(Cl)c(Cl)c(Cl)c(Cl)c2-c2nc3ccccc3[nH]2)c1` to `CN(C)c1ccc(C2C(Cl)C(=O)N2NC(=O)c2c(Cl)c(Cl)c(Cl)c(Cl)c2-c2nc3ccccc3[nH]2)cc1` (stereo unspecified), the TGI falls from over 100 µM to 22.5 µM.

`CCOC(=O)CCC(C(=O)OCC)n1nc2ccc(Nc3c(C)[n+]([O-])c4ccc(Cl)cc4[n+]3[O-])cc2n1` (stereo unspecified) and `CCOc1cc(NC(C)=O)ccc1C(=O)NNS(=O)(=O)c1ccc(Cl)cc1Cl` cannot be ordered by TGI: 60.9 µM for the first, over 50 µM for the second.

Work on `C(=N\c1cc2cc(Sc3ccccc3)ccc2[nH]1)/c1ccccc1` yielded a TGI of over 12.5 µM.

These compounds were tested on EKVX NSCLC (assay: inhibition of tumour cell growth, NCI panel, 48 h).

Going from `CCC(=O)Nc1cccc(NC(=O)c2c(Cl)c(Cl)c(Cl)c(Cl)c2-c2nc3ccccc3[nH]2)c1` to `CN(C)c1ccc(C2C(Cl)C(=O)N2NC(=O)c2c(Cl)c(Cl)c(Cl)c(Cl)c2-c2nc3ccccc3[nH]2)cc1` (stereo unspecified), the TGI falls from over 100 µM to 67.4 µM.

First: CCOC(=O)CCC(C(=O)OCC)n1nc2ccc(Nc3c(C)[n+]([O-])c4ccc(Cl)cc4[n+]3[O-])cc2n1 (stereo unspecified)
Second: CCOc1cc(NC(C)=O)ccc1C(=O)NNS(=O)(=O)c1ccc(Cl)cc1Cl
The TGI of the first is lower: 41.1 µM for the first, over 50 µM for the second.

`C(=N\c1cc2cc(Sc3ccccc3)ccc2[nH]1)/c1ccccc1` showed a TGI of over 12.5 µM.

What follows are compounds tested on HCC-2998 colon (assay: inhibition of tumour cell growth, NCI panel, 48 h).

Compared with `CCC(=O)Nc1cccc(NC(=O)c2c(Cl)c(Cl)c(Cl)c(Cl)c2-c2nc3ccccc3[nH]2)c1`, `CN(C)c1ccc(C2C(Cl)C(=O)N2NC(=O)c2c(Cl)c(Cl)c(Cl)c(Cl)c2-c2nc3ccccc3[nH]2)cc1` (stereo unspecified) is lower in TGI: over 100 µM for the first, 30.2 µM for the second.

Compared with `CCOC(=O)CCC(C(=O)OCC)n1nc2ccc(Nc3c(C)[n+]([O-])c4ccc(Cl)cc4[n+]3[O-])cc2n1` (stereo unspecified), `CCOc1cc(NC(C)=O)ccc1C(=O)NNS(=O)(=O)c1ccc(Cl)cc1Cl` is higher in TGI: 28 µM for the first, over 50 µM for the second.

With `C(=N\c1cc2cc(Sc3ccccc3)ccc2[nH]1)/c1ccccc1` the TGI was over 12.5 µM.

Each compound was assayed on HCT-116 colon (assay: inhibition of tumour cell growth, NCI panel, 48 h).

Going from `CCC(=O)Nc1cccc(NC(=O)c2c(Cl)c(Cl)c(Cl)c(Cl)c2-c2nc3ccccc3[nH]2)c1` to `CN(C)c1ccc(C2C(Cl)C(=O)N2NC(=O)c2c(Cl)c(Cl)c(Cl)c(Cl)c2-c2nc3ccccc3[nH]2)cc1` (stereo unspecified), the TGI falls from over 100 µM to 23.9 µM.

`CCOC(=O)CCC(C(=O)OCC)n1nc2ccc(Nc3c(C)[n+]([O-])c4ccc(Cl)cc4[n+]3[O-])cc2n1` (stereo unspecified) and `CCOc1cc(NC(C)=O)ccc1C(=O)NNS(=O)(=O)c1ccc(Cl)cc1Cl` cannot be ordered by TGI: 57.7 µM for the first, over 50 µM for the second.

Compound `C(=N\c1cc2cc(Sc3ccccc3)ccc2[nH]1)/c1ccccc1` has a TGI of over 12.5 µM.

What follows are compounds tested on HCT-15 colon (assay: inhibition of tumour cell growth, NCI panel, 48 h).

Going from `CCC(=O)Nc1cccc(NC(=O)c2c(Cl)c(Cl)c(Cl)c(Cl)c2-c2nc3ccccc3[nH]2)c1` to `CN(C)c1ccc(C2C(Cl)C(=O)N2NC(=O)c2c(Cl)c(Cl)c(Cl)c(Cl)c2-c2nc3ccccc3[nH]2)cc1` (stereo unspecified), the TGI falls from over 100 µM to 32.6 µM.

`CCOC(=O)CCC(C(=O)OCC)n1nc2ccc(Nc3c(C)[n+]([O-])c4ccc(Cl)cc4[n+]3[O-])cc2n1` (stereo unspecified) and `CCOc1cc(NC(C)=O)ccc1C(=O)NNS(=O)(=O)c1ccc(Cl)cc1Cl` cannot be ordered by TGI: over 100 µM for the first, over 50 µM for the second.

`C(=N\c1cc2cc(Sc3ccccc3)ccc2[nH]1)/c1ccccc1` was tested, and the TGI was over 12.5 µM.

Each compound was assayed on HL-60(TB) leukemia (assay: inhibition of tumour cell growth, NCI panel, 48 h).

`CCC(=O)Nc1cccc(NC(=O)c2c(Cl)c(Cl)c(Cl)c(Cl)c2-c2nc3ccccc3[nH]2)c1` and `CCOC(=O)CCC(C(=O)OCC)n1nc2ccc(Nc3c(C)[n+]([O-])c4ccc(Cl)cc4[n+]3[O-])cc2n1` (stereo unspecified) cannot be ordered by TGI: over 100 µM for the first, over 100 µM for the second.
